Literature values in US8062679B2, “Composition for maintaining androgen and androgen-like uptake potential by cells” (Northern Innovations and Formulations Corp., priority 2007, dated 2011).
Where two headings read alike, the source gives them in different places.

What was measured:
[1] = human blood
[2] = system: mitochondrial permeability transition
lutenizing hormone (LH) = conditions: after exercise, animals
[3] = fights ROS under low oxygen tension
[4] = prolonged L-carnitine administration
[5] = three weeks, equivalent of 2 g elemental carnitine per day; cross-over, placebo controlled
aromatase = molecular target: T1, aromatase (Homo sapiens, UniProt P11511)
T1 sequence (P11511 1-503): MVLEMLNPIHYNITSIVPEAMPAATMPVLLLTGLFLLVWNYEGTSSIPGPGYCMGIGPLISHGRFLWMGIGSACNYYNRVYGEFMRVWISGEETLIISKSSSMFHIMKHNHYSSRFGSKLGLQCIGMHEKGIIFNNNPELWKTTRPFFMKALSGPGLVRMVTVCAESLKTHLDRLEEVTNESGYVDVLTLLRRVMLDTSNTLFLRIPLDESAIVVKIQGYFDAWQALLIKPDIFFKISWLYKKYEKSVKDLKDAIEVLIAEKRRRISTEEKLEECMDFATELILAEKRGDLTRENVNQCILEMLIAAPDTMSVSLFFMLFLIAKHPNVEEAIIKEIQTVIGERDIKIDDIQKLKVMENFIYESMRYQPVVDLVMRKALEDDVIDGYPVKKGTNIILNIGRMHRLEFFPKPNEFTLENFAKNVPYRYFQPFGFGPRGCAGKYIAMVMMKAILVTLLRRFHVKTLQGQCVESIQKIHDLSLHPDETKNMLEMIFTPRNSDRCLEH

GH [6] = system: GH
GH [7] = conditions: oral, both 0.5 mg and 5.0 mg
GH [8] = system: GH; remark: listed apart in the source

COC1=C(OC)C(=O)C(C/C=C(\C)CC/C=C(\C)CC/C=C(\C)CC/C=C(\C)CC/C=C(\C)CC/C=C(\C)CC/C=C(\C)CC/C=C(\C)CC/C=C(\C)CCC=C(C)C)=C(C)C1=O [CoQ10, ubidecarenone]
antioxidant activity [1]: potent antioxidant
exercise duration (individuals suffering from angina, vs untreated groups): able to exercise for longer periods
myocardial function (patients with disease conditions involving energy production deficits): improved

CCCCCCCCCCC1=C(C)C(=O)C(OC)=C(OC)C1=O [Decylubiquinone]
redox-dependent mitochondrial permeability transition [2]: effectively block

CC(C)=CCC[C@](C)(O[C@@H]1O[C@H](CO[C@@H]2O[C@H](CO)[C@@H](O)[C@H](O)[C@H]2O)[C@@H](O)[C@H](O)[C@H]1O)[C@H]1CC[C@]2(C)[C@@H]1[C@H](O)C[C@@H]1[C@@]3(C)CC[C@H](O[C@@H]4O[C@H](CO)[C@@H](O)[C@H](O)[C@H]4O[C@@H]4O[C@H](CO)[C@@H](O)[C@H](O)[C@H]4O)C(C)(C)[C@@H]3CC[C@]12C [Ginsenoside Rb1]
secretion of lutenizing hormone (LH) (lutenizing hormone (LH)): stimulate the secretion

COC1=C(OC)C(=O)C(CCCCCCCCCCO)=C(C)C1=O [Idebenone]
antioxidant activity [3]: potent antioxidant

C[N+](C)(C)C[C@H](O)CC(=O)[O-] [L-carnitine]
pain and damage from eccentric muscular effort [4]: protective effect

C[N+](C)(C)C[C@H](O)CC(=O)[O-].O=C(O)C(O)C(O)C(=O)O [LCLT, L-carnitine L-tartrate]
muscle damage produced by an acute bout of high-intensity resistance exercise [5]: reduce muscle damage

CCCCC/C=C\C/C=C\CCCCCCCC(=O)O [linoleic]
aromatase activity (aromatase): efficient suppressors

CC/C=C\C/C=C\C/C=C\CCCCCCCC(=O)O [linolenic]
aromatase activity (aromatase): efficient suppressors

COc1ccc2[nH]cc(CCNC(C)=O)c2c1 [melatonin, N-Acetyl-5-methoxytryptamine]
GH, area under the curve (GH [6]; 5.0 mg orally 60 minutes prior to bicycle exercise at 70% VO2max, vs placebo): significant increases
time of GH peak following exercise (GH [6]; 5.0 mg orally 60 minutes prior to exercise): 30 min
plasma GH concentrations (GH [7]): significant increase
time of peak plasma GH (GH [7]): 60 min
serum free GH following a single bout of heavy-resistance exercise (GH [8]; 0.5 and 5.0 mg, weight-trained young males): significantly more effective than placebo
serum IGFBP-3 (GH [8]; pre- and post-exercise periods): notable increases

conjugated linoleic acids
aromatase activity (aromatase): efficient suppressors
